Results: paper PMC12663137 (Nature Communications, 2025)
Where “and” joins values, the source holds several entries; their conditions need not be identical. Equal entries are not always repeated.

Columns and labels:
SV2A = target: T1, SV2A (Homo sapiens, UniProt Q7L0J3); assay: Steady-state (saturation) binding of 3H-UCB-J with 30 µM UCB1244283 or 1% DMSO (Fig. 4A)
T1 construct: expressed in transfected cells; host or cells: HEK293 (ATCC CRL-1573), crude membranes
Protocol: (§1) Ligand binding studies were carried out using crude membranes prepared from HEK293 cells (ATCC, CRL-1573) overexpressing mVenus-SV2AWT or SV2AEM. Membranes were prepared either from transiently transfected cells or from baculovirus-infected cells as described previously. Cells were washed with DPBS (Ca^2+ and Mg^2+ free), followed by resuspending in cold SH buffer (10 mM HEPES-Tris pH 7.4, 320 mM sucrose) containing protease inhibitor cocktail (MedChemExpress) to a density of 10^7 cells/ml. This cell suspension was homogenized by passing through a bead homogenizer (Isobiotec) with 10-micron clearance bead on ice. The lysate was then centrifuged at 4000 × g for 5 min at 4 °C, and the supernatant was aliquoted, frozen in liquid nitrogen, and stored at −80 °C. The mVenus fluorescence estimated using fluorescence size-exclusion chromatography (FSEC) was used to normalize expression levels of mVenus-SV2A mutants studied as detailed previously. For all binding studies, membranes containing […] protein (estimated by BCA method) per reaction were used.
An equal volume of dimethyl sulfoxide (DMSO) was added to control reactions. Reactions were arrested after 2 h by trapping the membranes on a Unifilter-GF/C 96-well filter plate pre-soaked with 0.1%(w/v) polyethyleneimine. Membranes were washed four times with 0.2 ml of cold binding buffer, dried, and 40 µl of scintillation liquid was added to each well. Radioactivity was monitored in MicroBeta2 plate counter. Residual binding observed in presence of either 10 µM ^1H-UCB-J or 10 µM ^1H-padsevonil was considered as background and subtracted from total binding. Estimates for Kd and Bmax were obtained by fitting the data to one site-specific binding curve using GraphPad Prism 10.

SV2AEM = target: T2, SV2AEM (Homo sapiens, UniProt Q7L0J3); assay: Association kinetics of 3H-UCB-J after pre-incubation with UCB1244283 (Fig. 4F); type: binding
T2 construct: expressed in transfected cells; host or cells: HEK293 (ATCC CRL-1573), crude membranes (transient transfection or baculovirus)
Protocol: as §1
Residual radioligand binding observed in presence of 10 µM of ^1H-UCB-J was considered as background binding.

T1 sequence (Q7L0J3 whole entry): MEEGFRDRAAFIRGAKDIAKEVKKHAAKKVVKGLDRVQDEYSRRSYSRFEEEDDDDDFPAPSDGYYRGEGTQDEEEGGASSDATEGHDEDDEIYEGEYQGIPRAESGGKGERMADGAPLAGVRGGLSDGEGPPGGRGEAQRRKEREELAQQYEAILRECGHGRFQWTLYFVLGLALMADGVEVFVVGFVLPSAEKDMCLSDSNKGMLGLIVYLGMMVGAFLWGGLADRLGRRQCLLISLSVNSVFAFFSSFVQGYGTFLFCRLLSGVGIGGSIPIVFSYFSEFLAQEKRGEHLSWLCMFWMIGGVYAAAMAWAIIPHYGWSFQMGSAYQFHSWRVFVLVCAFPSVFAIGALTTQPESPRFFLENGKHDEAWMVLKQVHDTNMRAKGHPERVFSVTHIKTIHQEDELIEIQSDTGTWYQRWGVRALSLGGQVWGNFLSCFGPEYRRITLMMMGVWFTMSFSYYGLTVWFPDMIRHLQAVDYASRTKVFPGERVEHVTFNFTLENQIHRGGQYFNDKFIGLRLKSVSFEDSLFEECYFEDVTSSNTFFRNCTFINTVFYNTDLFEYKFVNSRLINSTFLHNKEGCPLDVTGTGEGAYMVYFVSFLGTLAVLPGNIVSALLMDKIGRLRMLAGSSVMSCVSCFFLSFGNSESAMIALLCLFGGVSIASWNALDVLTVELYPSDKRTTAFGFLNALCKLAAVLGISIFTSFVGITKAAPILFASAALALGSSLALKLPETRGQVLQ
T2 sequence (Q7L0J3 141-742): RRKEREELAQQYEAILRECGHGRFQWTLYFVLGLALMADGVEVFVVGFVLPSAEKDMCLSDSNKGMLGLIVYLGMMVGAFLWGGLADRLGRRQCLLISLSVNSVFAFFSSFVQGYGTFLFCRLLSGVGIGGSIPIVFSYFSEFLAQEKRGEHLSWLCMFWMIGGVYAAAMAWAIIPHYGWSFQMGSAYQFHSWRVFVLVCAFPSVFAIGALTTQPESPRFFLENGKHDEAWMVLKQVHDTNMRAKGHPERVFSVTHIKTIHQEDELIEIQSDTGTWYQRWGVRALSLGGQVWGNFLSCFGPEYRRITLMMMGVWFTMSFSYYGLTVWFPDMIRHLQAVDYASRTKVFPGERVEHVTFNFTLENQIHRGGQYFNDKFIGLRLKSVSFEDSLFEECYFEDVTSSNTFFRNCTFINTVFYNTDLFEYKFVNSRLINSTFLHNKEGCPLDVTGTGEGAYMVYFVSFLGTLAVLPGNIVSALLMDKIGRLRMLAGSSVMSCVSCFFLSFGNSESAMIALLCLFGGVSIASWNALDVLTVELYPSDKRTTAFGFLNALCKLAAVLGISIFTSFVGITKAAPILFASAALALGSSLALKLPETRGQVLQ

In the case of COc1ccccc1NC(=O)CC(C)Cc1cc(C)cc(C)c1 (centres unmarked) [UCB1244283], the “3H-UCB-J Binding (f.mol/assay)” value (SV2A; 3H-UCB-J 0.78 nM) is reported as 6 f.mol/assay and 7 f.mol/assay, the “3H-UCB-J Binding (f.mol/assay)” value (SV2A; 3H-UCB-J 1.56 nM) is reported as 11 f.mol/assay and 8 f.mol/assay and 10 f.mol/assay and 13 f.mol/assay and 14 f.mol/assay and the “3H-UCB-J Binding (f.mol/assay)” value (SV2A; 3H-UCB-J 6.25 nM) is reported as 35 f.mol/assay and 45 f.mol/assay and 39 f.mol/assay and 44 f.mol/assay and 54 f.mol/assay. For the same compound, the “3H-UCB-J Binding (f.mol/assay)” value (SV2A; 3H-UCB-J 12.50 nM) was 66 f.mol/assay and 56 f.mol/assay and 69 f.mol/assay and 73 f.mol/assay and 70 f.mol/assay and 60 f.mol/assay, the “3H-UCB-J Binding (f.mol/assay)” value (SV2A; 3H-UCB-J 25.00 nM) was 90 f.mol/assay and 106 f.mol/assay and 118 f.mol/assay and 84 f.mol/assay and 111 f.mol/assay and the “3H-UCB-J Binding (f.mol/assay)” value (SV2A; 3H-UCB-J 50.00 nM) was 82 f.mol/assay and 91 f.mol/assay and 128 f.mol/assay and 130 f.mol/assay and 116 f.mol/assay and 122 f.mol/assay. The “3H-UCB-J Binding (f.mol/assay)” value (SV2A; 3H-UCB-J 100.00 nM) was 104 f.mol/assay and 70 f.mol/assay and 121 f.mol/assay and 105 f.mol/assay and 88 f.mol/assay and 115 f.mol/assay, the “3H-UCB-J Binding (%)” value (SV2AEM; pre-incubate 10 μM UCB1244283, 0 min) was 0.02% and 0.00168% and the “3H-UCB-J Binding (%)” value (SV2AEM; pre-incubate 10 μM UCB1244283, 0.5 min) was 0.16% and 0.14%. For the same compound, the “3H-UCB-J Binding (%)” value (SV2AEM; pre-incubate 10 μM UCB1244283, 1 min) was 0.20% and 0.18%, the “3H-UCB-J Binding (%)” value (SV2AEM; pre-incubate 10 μM UCB1244283, 1.5 min) was 0.16% and 0.22% and the “3H-UCB-J Binding (%)” value (SV2AEM; pre-incubate 10 μM UCB1244283, 2 min) was 0.23% and 0.25%. The “3H-UCB-J Binding (%)” value (SV2AEM; pre-incubate 10 μM UCB1244283, 2.5 min) was 0.16% and 0.30%, the “3H-UCB-J Binding (%)” value (SV2AEM; pre-incubate 10 μM UCB1244283, 3 min) was 0.29% and 0.33% and the “3H-UCB-J Binding (%)” value (SV2AEM; pre-incubate 10 μM UCB1244283, 3.5 min) was 0.30% and 0.35%. The “3H-UCB-J Binding (%)” value (SV2AEM; pre-incubate 10 μM UCB1244283, 4 min) was 0.29% and 0.36%, the “3H-UCB-J Binding (%)” value (SV2AEM; pre-incubate 10 μM UCB1244283, 4.5 min) was 0.41% and 0.37% and the “3H-UCB-J Binding (%)” value (SV2AEM; pre-incubate 10 μM UCB1244283, 5 min) was 0.39%. The “3H-UCB-J Binding (%)” value (SV2AEM; pre-incubate 30 μM UCB1244283, 0 min) was 0.00112% and 0.00142%, the “3H-UCB-J Binding (%)” value (SV2AEM; pre-incubate 30 μM UCB1244283, 0.5 min) was 0.10% and the “3H-UCB-J Binding (%)” value (SV2AEM; pre-incubate 30 μM UCB1244283, 1 min) was 0.11%. The “3H-UCB-J Binding (%)” value (SV2AEM; pre-incubate 30 μM UCB1244283, 1.5 min) was 0.13% and 0.12%, the “3H-UCB-J Binding (%)” value (SV2AEM; pre-incubate 30 μM UCB1244283, 2 min) was 0.14% and the “3H-UCB-J Binding (%)” value (SV2AEM; pre-incubate 30 μM UCB1244283, 2.5 min) was 0.14% and 0.15%. The “3H-UCB-J Binding (%)” value (SV2AEM; pre-incubate 30 μM UCB1244283, 3 min) was 0.15%, the “3H-UCB-J Binding (%)” value (SV2AEM; pre-incubate 30 μM UCB1244283, 3.5 min) was 0.14% and 0.15% and the “3H-UCB-J Binding (%)” value (SV2AEM; pre-incubate 30 μM UCB1244283, 4 min) was 0.16%. The “3H-UCB-J Binding (%)” value (SV2AEM; pre-incubate 30 μM UCB1244283, 4.5 min) was 0.22% and 0.16% and the “3H-UCB-J Binding (%)” value (SV2AEM; pre-incubate 30 μM UCB1244283, 5 min) was 0.23% and 0.19%.
